Measured values: patent publication US5101038A, “Novel substance DC 113 and production thereof” (priority 1988, dated 1992)
≈ marks a conversion by molar mass, not a printed value.

Columns and labels:
[1] = system: Lymphocytic leukemia P-388 tumor cells; test: Therapeutic effect upon lymphocytic leukemia P-388 tumor; assay type: in vivo, CDF1 male mice; conditions: 24 hours after transplantation
Description: Lymphocytic leukemia P-388 tumor cells (1×10^6 cells) were transplanted intraperitoneally into each of five CDF1 male mice weighing about 22 grams. Twenty-four hours after transplantation, 0.2 ml of a PBS (phosphate-buffered saline) solution of DC 113 was intraperitoneally administered to each mouse. For comparison, 0.2 ml of a PBS solution of mitomycin C was intraperitoneally administered to each of five mice 24 hours after transplantation. The life-prolonging effect of DC 113 thus established is shown below in Table 2 in terms of the T/C ratio [T mean number of days of survival after transplantation in the DC 113 group; C=mean number of days of survival after transplantation in the control group (intraperitoneally given 0.2 ml of PBS)].

Acute toxicity (LD50) = conditions: mouse, in vivo; intravenous, mice
[2] = Stability compared with DC-88A; assay type: physicochemical; conditions: relative to known compound DC-88A
[3] = system: Salmonella typhosa ATCC 9992; test: Antimicrobial activity, MIC by agar dilution method (pH 7.0); assay type: cell-based; conditions: Salmonella enterica, read-out: Minimum inhibitory concentration (MIC)
Description: (§1) Minimum inhibitory concentrations (MIC) against various bacteria were determined by the agar dilution method (pH 7.0).

[4] = system: Klebsiella pneumoniae ATCC 10031; test: as above; assay type: cell-based; conditions: ATCC10031, read-out: Minimum inhibitory concentration (MIC)
Description: as §1

Escherichia coli ATCC 26 = test: as above; assay type: cell-based; conditions: ATCC26, read-out: Minimum inhibitory concentration (MIC)
Description: as §1

[5] = system: Bacillus subtilis No. 10707; test: as above; assay type: cell-based; conditions: read-out: Minimum inhibitory concentration (MIC)
Description: as §1

[6] = system: Staphylococcus aureus ATCC 6538P; test: as above; assay type: cell-based; conditions: ATCC6538P, read-out: Minimum inhibitory concentration (MIC)
Description: as §1

Solubility = assay type: physicochemical

Row | Compound | Life-prolonging effect (T/C) ([1]; 6 mg/kg i.p.) | LD50 (Acute toxicity (LD50)) | Stability [2] | MIC [3] | MIC [4] | MIC (Escherichia coli ATCC 26) | MIC [5] | MIC [6] | Life-prolonging effect (T/C) ([1]; 0.0063 mg/kg i.p.) | Life-prolonging effect (T/C) ([1]; 0.013 mg/kg i.p.) | Solubility (Solubility; in chloroform, DMSO, methanol, ethyl acetate and acetone) | Solubility (Solubility; in water and n-hexane)
1 | CO[C@@]12[C@H](COC(N)=O)C3=C(C(=O)C(C)=C(N)C3=O)N1C[C@@H]1N[C@@H]12 [Mitomycin C, mitomycin C, reference compound] | 151 | – | – | – | – | – | – | – | – | – | – | –
2 | COC(=O)c1cc2c([nH]1)C(=O)C=C1N(C(=O)c3cc4cc(OC)c(OC)c(OC)c4[nH]3)CC3CC123 (stereo not drawn) [DC 113] | – | 0.14 mg/kg | more stable than the known compound DC-88A | 0.1 µg/mL (≈ 0.209 µM) | 0.021 µg/mL (≈ 0.044 µM) | 0.064 µg/mL (≈ 0.134 µM) | 0.00065 µg/mL (≈ 0.00136 µM) | 0.0013 µg/mL (≈ 0.00272 µM) | 130 | 110 | Soluble | sparingly soluble
